Literature values, collected in patent US20220047541A1, “PHARMACEUTICAL COMPOSITIONS AND METHODS FOR TREATING PARKINSON'S DISEASE” (Pike Therapeutics, Inc., priority 2020, published 2022).

Experiments:
CB2 = CB2 (Homo sapiens, UniProt P34972); settings: given as ×, fold or times
Chain of CB2 (P34972 whole entry, species assumed): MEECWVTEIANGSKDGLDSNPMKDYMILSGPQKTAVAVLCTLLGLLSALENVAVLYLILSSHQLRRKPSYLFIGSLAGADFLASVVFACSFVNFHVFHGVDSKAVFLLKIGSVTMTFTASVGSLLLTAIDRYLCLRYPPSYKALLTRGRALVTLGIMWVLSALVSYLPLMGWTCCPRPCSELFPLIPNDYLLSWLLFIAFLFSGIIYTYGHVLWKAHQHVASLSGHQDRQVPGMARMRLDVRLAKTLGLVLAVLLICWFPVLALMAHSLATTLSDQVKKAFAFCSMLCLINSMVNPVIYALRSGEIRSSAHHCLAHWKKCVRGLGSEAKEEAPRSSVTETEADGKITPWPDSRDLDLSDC

Structure (SMILES)	selectivity for CB2 over CB1 (CB2)	solubility in water
CCCCCCC(C)(C)c1cc(O)c2c(c1)oc(=O)c1ccc(OC)cc12 [AM-1710]	54 fold	–
CCCn1cc(C(=O)c2ccc(C)c3ccccc23)c2ccccc21 [JWH-120]	173 fold	–
CCCn1c(C)c(C(=O)c2ccc(C)c3ccccc23)c2ccccc21 [JWH-148]	more than 8 fold	–
CCCCCCC(C)(C)c1cc(OC)c2c(c1)OC(C)(C)C1CCC(O)CC21 (stereo not drawn) [JWH-350, 11-nor-1-methoxy-3-(1′,1′-dimethylheptyl)-9α-hydroxyhexahydrocannabinol]	33 fold	–
N[C@@H](Cc1ccc(O)c(O)c1)C(=O)O [Levodopa, L-3,4-dihydroxyphenylalanine (S)-2-amino-3-(3,4-dihydroxyphenyl)propanoic acid]	–	slightly soluble
